Results on 4 compounds are retold here after patent US10065990B2, “Cyclic peptide compound, and preparation method, pharmaceutical composition and use thereof” (HANGZHOU GUANYU BIO-MEDICAL CO., LTD, priority 2013, dated 2018).

SMILES strings stand for the structures. Like-named read-outs stand apart in the source and are kept apart here.

In one assay the target is T1, HDAC7 (Homo sapiens, UniProt Q8WUI4).
T1 sequence (Q8WUI4 1-952): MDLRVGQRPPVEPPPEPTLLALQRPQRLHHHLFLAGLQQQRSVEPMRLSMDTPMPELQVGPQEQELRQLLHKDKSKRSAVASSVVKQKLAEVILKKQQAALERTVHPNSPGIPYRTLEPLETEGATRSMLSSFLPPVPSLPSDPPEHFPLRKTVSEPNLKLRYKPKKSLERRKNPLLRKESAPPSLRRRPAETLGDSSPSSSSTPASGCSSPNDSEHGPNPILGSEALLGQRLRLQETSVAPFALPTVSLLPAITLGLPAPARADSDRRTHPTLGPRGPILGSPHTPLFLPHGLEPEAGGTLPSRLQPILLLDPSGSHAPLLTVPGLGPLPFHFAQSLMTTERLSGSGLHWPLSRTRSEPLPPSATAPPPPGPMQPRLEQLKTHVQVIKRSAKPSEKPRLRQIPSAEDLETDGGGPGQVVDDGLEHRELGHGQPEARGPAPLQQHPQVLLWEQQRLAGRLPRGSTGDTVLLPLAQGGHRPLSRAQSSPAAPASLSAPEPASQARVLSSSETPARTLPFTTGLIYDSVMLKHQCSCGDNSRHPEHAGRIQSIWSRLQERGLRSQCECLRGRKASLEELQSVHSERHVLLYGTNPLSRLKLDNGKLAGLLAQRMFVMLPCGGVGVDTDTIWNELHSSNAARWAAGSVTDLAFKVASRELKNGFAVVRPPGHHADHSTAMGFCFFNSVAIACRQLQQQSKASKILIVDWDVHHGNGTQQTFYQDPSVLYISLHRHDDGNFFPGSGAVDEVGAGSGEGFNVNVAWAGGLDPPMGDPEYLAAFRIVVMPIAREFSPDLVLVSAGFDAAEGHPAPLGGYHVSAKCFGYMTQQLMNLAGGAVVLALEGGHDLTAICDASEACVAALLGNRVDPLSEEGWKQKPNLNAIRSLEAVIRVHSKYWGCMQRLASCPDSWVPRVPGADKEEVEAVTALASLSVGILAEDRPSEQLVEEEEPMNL
In words: HDAC biochemical activity measurement (fluorescent substrate deacetylation).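 Further: fluorogenic deacetylation assay using acetyl-lysine substrate at 20 µM, enzyme and compound incubated 30 min at 37 °C, then developer added, fluorescence read at 360/460 nm.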 As to conditions: HDAC7; 37° C. 30 minutes.

Assay [1] relates to PANC-1 (Pac-1, human pancreatic cancer cells). In words: MTT cancer cell growth inhibition. The format is cell-based. As to conditions: MTT, 72 hours incubation, read-out: GI50 PAN. In outline: (§1)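 Following overnight attachment of 1500 cells per well, each line was exposed to test drug (final 10^−5 to 10^−10 M) for 72 h in a humidified 37° C., 5% CO2 incubator. Four hours with MTT, DMSO dissolution of formazan, and a 570 nm reading yielded viability data used for GI50.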

The test system of assay [2] is Hela (human cervical cancer cells). In words: MTT cancer cell growth inhibition. Type of assay: cell-based. As to conditions: MTT, 72 hours incubation, read-out: GI50 Hela. In outline:
as §1

Assay [3] relates to lncap (prostate cancer cells). In words: MTT cancer cell growth inhibition. The format is cell-based. Particulars: MTT, 72 hours incubation, read-out: GI50 lnca. The gist of the method: as §1
Assay [4] concerns SGC-7901 (human gastric cancer cells). In words: MTT cancer cell growth inhibition. As to conditions: MTT, 72 hours incubation, SGC-7901 cells, read-out: GI50 SGC-7901. Type of assay: cell-based. The gist of the method:
as §1

Assay [5] has as its system K562 (human leukemia cells). Kind of assay: MTT cancer cell growth inhibition. The format is cell-based. Particulars: MTT, 72 hours incubation, K562 cells, read-out: GI50 K562. In outline: as §1
Assay [6] deals with HCC827 (human non-small cell lung cancer cells). In words: MTT cancer cell growth inhibition. Type of assay: cell-based. As to conditions: MTT, 72 hours incubation, HCC827 cells, read-out: GI50 HCC827. The gist of the method: as §1
Assay [7] concerns U937 (human leukemia cells). Kind of assay: MTT cancer cell growth inhibition. Particulars: MTT, 72 hours incubation, read-out: GI50 U93. The format is cell-based. In outline: as §1
Assay [8] has as its system BGC-823 (human gastric cancer cells). Kind of assay: MTT cancer cell growth inhibition. Type of assay: cell-based. As to conditions: MTT, 72 hours incubation, read-out: GI50 BG. The gist of the method: as §1
Assay [9] deals with N-87 (human gastric cancer cells). Kind of assay: MTT cancer cell growth inhibition. The format is cell-based. As to conditions: MTT, 72 hours incubation, N-87 cells, read-out: GI50 N-87. In outline:
as §1

Assay [10] concerns MCF-7 (human breast cancer cells). Kind of assay: MTT cancer cell growth inhibition. Type of assay: cell-based. As to conditions: 72 hours incubation, read-out: GI50 MCF. The gist of the method:
as §1

Assay [11] deals with KBM5-T315I (human chronic myelogenous leukemia). In words: MTT cancer cell growth inhibition. The format is cell-based. As to conditions: MTT, 72 hours incubation, KBM5-T315I cells, read-out: GI50 KBM5-T315I. The gist of the method:
as §1

In assay [12] the test system is DU145 (human prostate cancer cells). Kind of assay: MTT cancer cell growth inhibition. Type of assay: cell-based. Particulars: MTT, 72 hours incubation, read-out: GI50 Du1. In outline:
as §1

Assay [13] concerns Bel-7402 (human hepatoma cells). Kind of assay: MTT cancer cell growth inhibition. As to conditions: MTT, 72 hours incubation, Bel-7402 cells, read-out: GI50 Bel-7402. Type of assay: cell-based. The gist of the method:
as §1

The test system of assay [14] is A549 (human lung cancer cells). In words: MTT cancer cell growth inhibition. Type of assay: cell-based. Particulars: MTT, 72 hours incubation, read-out: GI50 A54. In outline: as §1
In assay [15] the test system is HT1080 (human fibrosarcoma cells). Kind of assay: MTT cancer cell growth inhibition. Type of assay: cell-based. As to conditions: MTT, 72 hours incubation, read-out: GI50 HT1. In outline: as §1
Assay [16] has as its system H1975 (non-small cell lung adenocarcinoma). Kind of assay: MTT cancer cell growth inhibition. The format is cell-based. As to conditions: MTT, 72 hours incubation, H1975 cells, read-out: GI50 H1975. The gist of the method: as §1
Assay [17] concerns MOLT-4 (human acute lymphoblastic leukemia cells). In words: MTT cancer cell growth inhibition. Type of assay: cell-based. As to conditions: MTT, 72 hours incubation, read-out: GI50 Mol. The gist of the method:
as §1

The test system of assay [18] is KBM-5 (human chronic myelogenous leukemia). In words: MTT cancer cell growth inhibition. The format is cell-based. As to conditions: MTT, 72 hours incubation, KBM-5 cells, read-out: GI50 KBM-5. The gist of the method:
as §1

Assay [19] has as its system MDA-MB-231 (breast cancer cells). Kind of assay: MTT cancer cell growth inhibition. Type of assay: cell-based. The gist of the method: as §1
The test system of assay [20] is Huh-7 (human hepatoma cells). Kind of assay: MTT cancer cell growth inhibition. Type of assay: cell-based. Particulars: MTT, 72 hours incubation, Huh-7 cells, read-out: GI50 Huh-7. In outline: as §1
Where [21] appears, read: Homo sapiens, PANC-1, 72 h, PANC-1 cells.
Where [22] appears, read: Homo sapiens, HeLa, 72 h, Hela cells.
[23] abbreviates: Homo sapiens, LNCaP, 72 h, lncap cells.
[24] abbreviates: Homo sapiens, U-937, 72 h, U937 cells.
[25] abbreviates: Homo sapiens, BGC-823, 72 h, BGC-823 cells.
Where [26] appears, read: Homo sapiens, MCF7, 72 h, MCF-7 cells.
Where [27] appears, read: Homo sapiens, DU-145, 72 h, DU145 cells.
[28] abbreviates: Homo sapiens, A549, 72 h, A549 cells.
[29] abbreviates: Homo sapiens, HT-1080, 72 h, HT1080 cells.
Setting [30] is: Homo sapiens, MOLT-4, 72 h, MOLT-4 cells.
Where [31] appears, read: Homo sapiens, MDA-MB-231, 72 h, read-out: GI50 MDA-MB-231, MTT, 72 hours incubation, MDA-MB-231 cells.

Regarding `C=C1NC(=O)c2cc(F)cc(n2)CNC(=O)C[C@@H](/C=C/CCS)OC(=O)[C@H](C(C)C)NC1=O` [Compound 133], the “IC50 HDAC7” value at HDAC7 is reported as “no activity”. The GI50 – broadly, the concentration that inhibits growth by half – was determined as 50 nM in assay [1]; 20 nM in assay [2]; 80 nM in [3]; 35 nM in assay [4]; 16 nM in [5]; 36 nM in [6]. Besides, the GI50 in [7] was found to be 50 nM; in assay [8] it was 50 nM; in assay [9], 66 nM; in assay [10] it was 70 nM; in assay [11], 16 nM; in assay [12] it was 70 nM. For the same compound, the GI50 in [13] was determined as 32 nM; in assay [14] it was 50 nM; in [15] it was 80 nM; in [16] it was 31 nM; in [17] it was 80 nM; in [18], 36 nM. The GI50 in assay [19] (read-out: GI50 MDA-MB-231, MTT, 72 hours incubation, MDA-MB-231 cells) is 35 nM; in [20], 33 nM.
As for `C/C=C1\NC(=O)c2nc(ccc2SCC)CNC(=O)C[C@@H](/C=C/CCSC(=O)CCCCCCC)OC(=O)[C@H](C(C)C)NC1=O` [Compound 247], the “IC50 HDAC7” value against HDAC7 was “no activity”. The GI50 was 50 nM in assay [1] (setting [21]); 50 nM in assay [2] (setting [22]); 20 nM in assay [3] (setting [23]); 65 nM in assay [4] (Homo sapiens, SGC-7901, 72 h); 33 nM in assay [5] (Homo sapiens, K562, 72 h); 41 nM in assay [6] (Homo sapiens, HCC827, 72 h). The GI50 was 70 nM in [7] (setting [24]); 10 nM in assay [8] (setting [25]); 23 nM in assay [9] (Homo sapiens, 72 h); 50 nM in assay [10] (setting [26]); 45 nM in assay [11] (Homo sapiens, 72 h); 20 nM in assay [12] (setting [27]). For the same compound, the GI50 was determined as 95 nM in [13] (Homo sapiens, Bel-7402, 72 h); 60 nM in [14] (setting [28]); 60 nM in assay [15] (setting [29]); 32 nM in [16] (Homo sapiens, NCI-H1975, 72 h); 30 nM in [17] (setting [30]); 32 nM in assay [18] (Homo sapiens, KBM5, 72 h). Also, the GI50 came to 38 nM in [19] (setting [31]) and 53 nM in assay [20] (Homo sapiens, Huh-7, 72 h).
As for `C=C1NC(=O)c2cc(SC)cc(n2)CNC(=O)C[C@@H](/C=C/CCSC(C)=O)OC(=O)[C@H](C)NC1=O` [Compound 211], the “IC50 HDAC7” value at HDAC7 was “no activity”. Besides, the GI50 in assay [1] (setting [21]) was determined as 70 nM; in assay [2] (setting [22]) it was 60 nM; in assay [3] (setting [23]), 30 nM; in assay [4] (Homo sapiens, SGC-7901, 72 h), 71 nM; in [5] (Homo sapiens, K562, 72 h) it was 19 nM; in assay [6] (Homo sapiens, HCC827, 72 h) it was 55 nM. The GI50 was found to be 40 nM in assay [7] (setting [24]); 70 nM in assay [8] (setting [25]); 31 nM in [9] (Homo sapiens, 72 h); 70 nM in assay [10] (setting [26]); 28 nM in [11] (Homo sapiens, 72 h); 60 nM in [12] (setting [27]). In addition, the GI50 in assay [13] (Homo sapiens, Bel-7402, 72 h) came to 21 nM; in assay [14] (setting [28]) it was 40 nM; in [15] (setting [29]), 40 nM; in [16] (Homo sapiens, NCI-H1975, 72 h), 73 nM; in assay [17] (setting [30]), 30 nM; in assay [18] (Homo sapiens, KBM5, 72 h) it was 31 nM. Further, the concentration for 50% growth inhibition (GI50) in assay [19] (setting [31]) stood at 85 nM; in [20] (Homo sapiens, Huh-7, 72 h) it was 24 nM.
With `C/C=C1\NC(=O)c2cc(SC)cc(n2)CNC(=O)C[C@@H](/C=C/CCS)OC(=O)[C@H](C)NC1=O` [Compound 233], at HDAC7, the “IC50 HDAC7” value is “no activity”. Also, the 50% growth inhibitory concentration (GI50) came to 20 nM in assay [1] (setting [21]); 50 nM in [2] (setting [22]); 20 nM in [3] (setting [23]); 51 nM in assay [4] (Homo sapiens, SGC-7901, 72 h); 24 nM in assay [5] (Homo sapiens, K562, 72 h); 81 nM in assay [6] (Homo sapiens, HCC827, 72 h). Besides, the GI50 was found to be 80 nM in assay [7] (setting [24]); 60 nM in [8] (setting [25]); 35 nM in assay [9] (Homo sapiens, 72 h); 20 nM in [10] (setting [26]); 46 nM in assay [11] (Homo sapiens, 72 h); 50 nM in assay [12] (setting [27]). For the same compound, the GI50 in [13] (Homo sapiens, Bel-7402, 72 h) stood at 81 nM; in assay [14] (setting [28]) it was 20 nM; in [15] (setting [29]) it was 70 nM; in [16] (Homo sapiens, NCI-H1975, 72 h), 51 nM; in assay [17] (setting [30]), 30 nM; in [18] (Homo sapiens, KBM5, 72 h), 97 nM. In addition, the GI50 in assay [19] (setting [31]) is 36 nM; in assay [20] (Homo sapiens, Huh-7, 72 h), 41 nM.
